{"source": "patent US7531500B2", "about": "“Preventing airway mucus production by administration of EGF-R antagonists” (The Regents of the University of California, priority 1998, dated 2009)", "test_system": "pathogen-free rats", "test": "Goblet cell production in pathogen-free rats after tracheal instillation of TNFα and EGF-R ligands", "assay_type": "in vivo, rat", "description": "Healthy rats. Rats were anesthetized with methohexital sodium (Brevital sodium, 50 mg/kg, i.p.; Eli Lilly & Co., Indianapolis, Ind.) and allowed to breathe spontaneously. […] In each study, sterile PBS (100 μl) was instilled into the trachea as control. […] Rats were pretreated with BIBX1522 (3, 10 or 30 mg/kg, i.p.), 1 h before and 24 h after instillation of TGFα. The trachea and lungs were removed for examination 48 h after the instillation of TGFα.\nTissue preparation. At preselected times during anesthesia, the systemic circulation was perfused with 1% paraformaldehyde in DEPC-treated PBS at a pressure of 120 mmHg. The trachea was then removed and placed in 4% paraformaldehyde for 24 h. After fixation, trachea and lungs were embedded in either JB-4 plus monomer solution A for cell analysis or O.C.T. compound (Sakura Finetek U.S.A., Inc., Torrance, Calif.) for immunohistochemistry and in situ hybridization. The embedded tissues were cut as cross sections ([…] thick) and placed on slides.\nCell analysis. We counted the total number of epithelial cells by counting epithelial cell nuclei over 2 mm of the basal lamina with an oil immersion objective lens (×1000 magnification). The linear length of the basal lamina under each analyzed region of epithelium was determined by tracing the contour of the digitized image of the basal lamina. After instillation of stimuli, “developing” goblet cells form. These cells have Alcian blue/PAS-positive granules, but the size of granules is small, and the number of cytoplasmic granules is few. We call these “developing” goblet cells “pre-goblet cells”, a stage before cells become mature goblet cells. Goblet cells are tall, cuboidal, goblet to low columnar in shape, with abundant Alcian blue/PAS-stained granules filling most of the cytoplasm between the nucleus and the luminal surface. Pre-goblet cells are defined as cells with smaller mucus-stained areas (<1/3 height in epithelium from basement membrane to luminal surface) or with sparsely and lightly Alcian blue/PAS-stained, small granules. Ciliated cells are recognized by their ciliated borders, lightly stained cytoplasm, and large round nuclei. Non-granulated secretory cells are columnar in shape and extend from the lumen to the basal lamina. The cytoplasm stains light pink color, and a few tiny PAS-positive and Alcian blue-negative granules are observed in the cytoplasm. Basal cells are small flattened cells with a large nucleus, located just above the basal lamina but not reaching the airway lumen.\nQuantification of goblet cell production. Goblet cell production, was determined by the volume density of Alcian blue/PAS-stained mucosubstances on the mucosal surface epithelium using a semi-automatic imaging system described elsewhere (Weber et al. (1984) Science 224:294-297). We measured the Alcian blue/PAS-positive stained area and the total epithelial area and expressed the data as the percentage of the total area stained by Alcian blue-PAS. The analysis was performed with the public domain NIH Image program (developed at the U.S. National Institute of Health and available from the Internet by anonymous FTP from zippy.nimh.gov or on floppy disk from the National Technical Information Service, Springfield, Va., part number PB95-500195GEI).\nImmunohistochemical localization of EGF-R in rat epithelium. The localization of EGF-R was examined using immunchistochemical staining with an antibody to EGF-R (Calbiochem, San Diego, Calif.) in frozen sections of rat trachea. After perfusion with 1% paraformaldehyde in PBS, tissues were placed in 4% paraformaldehyde in PBS for 1 h and then removed in 30% sucrose for cryoprotection overnight. Tracheas were embedded in O.C.T. compound (Sakura Finetek U.S.A., Inc., Torrance, Calif.) and frozen. Frozen sections (5 μm) were cut and placed on glass slides (Superfrost Plus, Fisher Scientific, Pittsburgh, Pa.). Immunostaining was performed similarly to the in vitro studies."}
{"substance": "TGFα: transforming growth factor alpha, EGF-R ligand (recombinant human; rat synthetic in vivo)", "values": [{"measurement": "Goblet cells in tracheal epithelium", "setting": "TGFα 250 ng alone or 24 h after TNFα 200 ng, i.t., 48 h later, counted over 2 mm basal lamina, mean ± SEM, 5 rats", "result": "5.8 ± 1.2"}, {"measurement": "% of AB/PAS-stained area", "setting": "as E9", "result": "6.8 ± 1.9", "unit": "%"}, {"measurement": "Basal cells in tracheal epithelium", "setting": "as E9", "result": "56.8 ± 2.3"}, {"measurement": "Ciliated cells in tracheal epithelium", "setting": "as E9", "result": "54.6 ± 2.3"}, {"measurement": "Indeterminate cells in tracheal epithelium", "setting": "as E9", "result": "2.0 ± 0.4"}, {"measurement": "Pre-goblet cells in tracheal epithelium", "setting": "as E9", "result": "12.8 ± 1.6"}, {"measurement": "Secretory cells in tracheal epithelium", "setting": "as E9", "result": "72.2 ± 4.0"}, {"measurement": "Total cells in tracheal epithelium", "setting": "as E9", "result": "204.2 ± 3.3"}]}
